Where a name gives a salt, the structure may show the parent alone.
System: coronary vasospasm
Experiment: Treatment of coronary vasospasm after off pump beating coronary artery bypass grafting (angiography, case reports)
Format: in vivo, patient
Description: To a patient who had been subjected to off pump beating coronary artery bypass grafting (in which a left internal thoracic artery was anastomosed to each of a left anterior descending coronary artery and a diagonal branch), during and after the operation, isosorbide dinitrate (2 to 5 mg/hour), diltiazem (1 to 2 mg/hour), nicorandil (4 to 6 mg/hour), and catecholamines (1 to 2 μg/kg per minute of dopamine and 1 to 2 μg/kg per minute of dobutamine) were continuously intravenously administered. However, after three hours of the operation, severe coronary vasospasm occurred. The coronary vasospasm occurred in a right coronary artery which was not related to the bypass operation. Isosorbide dinitrate (total of 10 mg) was administered into the coronary artery, but it had no effect on the vasospasm. Therefore, fasudil hydrochloride was dissolved in a physiological saline and then the mixture was administered into the right coronary artery for 15 minutes at a rate of 1.5 mg/minute. As a result, the coronary vasospasm was resolved (see FIG. 1). At the occurrence of the vasospasm and after the administration of isosorbide dinitrate, the right coronary artery became thin like a thread due to the vasospasm and peripheral part thereof was not illustrated. However, after the administration of fasudil hydrochloride, the peripheral part was illustrated. […] After that, fasudil hydrochloride was dissolved in the physiological saline and the mixture was continuously administered into the vein for 72 hours (tapered from 10 mg/hour).
To a patient who had been subjected to off pump beating coronary artery bypass grafting (in which a saphenous vein graft was anastomosed from an aorta to a left anterior descending coronary artery), during and after the operation, isosorbide dinitrate (1 to 5 mg/hour), diltiazem (1 to 2 mg/hour), and catecholamines (1 to 2 μg/kg per minute of dopamine, dobutamine, and norepinephrine, respectively) were continuously intravenously administered. However, after five hours of the operation, severe coronary vasospasm occurred. The coronary vasospasm occurred in a right coronary artery and a left circumflex coronary artery which were not related to the bypass operation. Isosorbide dinitrate (total of 10 mg) was administered into the right coronary artery, but it had no effect on the vasospasm. Therefore, fasudil hydrochloride was dissolved in a physiological saline and then the mixture was administered into the right coronary artery for 15 minutes at a rate of 1.5 mg/minute As a result, the coronary vasospasm was resolved (see FIG. 1). At the occurrence of the vasospasm and after the administration of isosorbide dinitrate, the distal part thereof from the portion where the vasospasm had occurred was not illustrated. However, after the administration of fasudil hydrochloride, the peripheral part was illustrated. […] After that, fasudil hydrochloride was dissolved in the physiological saline and the mixture was continuously administered into the vein for 72 hours (tapered from 10 mg/hour).
To a patient who had been subjected to off pump beating coronary artery bypass grafting (in which a right internal thoracic artery was anastomosed to a left anterior descending coronary artery and a left internal thoracic artery was anastomosed to a posterolateral branch of a left circumflex coronary artery), during the operation, isosorbide dinitrate (1 to 3 mg/hour), diltiazem (0.5 to 1 mg/hour), nicorandil (2 to 3 mg/hour), and catecholamines (1 to 5 μg/kg per minute of dopamine, 1 to 2 μg/kg per minute of dobutamine, and 1 to 2 μg/min of norepinephrine) were continuously intravenously administered. However, severe coronary vasospasm occurred immediately thereafter. The vasospasm occurred in the right coronary artery which was not related to the bypass operation and the bypass artery grafts (the right internal thoracic artery and the left internal thoracic artery) while the anastomosis region was left open. […]

**Q.** O=S(=O)(c1cccc2cnccc12)N1CCCNCC1 [fasudil hydrochloride] was tested. Which “recurrence of coronary vasospasm” value (Example 1 patient, continuous intravenous administration for 72 hours (tapered from 10 mg/hour)) did it give?
**A.** The value was “did not occur again”.

**Q.** And the “effect on the coronary vasospasm” value (Example 1 patient, fasudil hydrochloride in physiological saline into the right coronary artery for 15 minutes at 1.5 mg/minute)?
**A.** Its value is “resolved”.

**Q.** What about the “recurrence of coronary vasospasm” value (Example 2 patient, continuous intravenous administration for 72 hours (tapered from 10 mg/hour)) of the same compound?
**A.** Its value is “did not occur again”.

**Q.** What about the “effect on the coronary vasospasm” value (Example 2 patient, fasudil hydrochloride in physiological saline into the right coronary artery for 15 minutes at 1.5 mg/minute) of the same compound?
**A.** The value was “resolved”.

**Q.** And the “recurrence of coronary vasospasm” value (Example 3 patient, continuous intravenous administration for 48 hours (tapered from 30 mg/hour))?
**A.** Its value is “did not occur again”.

**Q.** What about the “effect on the coronary vasospasm” value (Example 3 patient, fasudil hydrochloride in physiological saline into each of the blood vessels for 15 minutes at 1.5 mg/minute) of the same compound?
**A.** Its value is “resolved”.

From US20080242660A1, “Therapeutic Agent for Vasospasm Accompanying Bypass Operation” (ASAHI KASEI PHARMA CORPORATION, priority 2004, published 2008)
